The record followed here is patent US9957214B2, “Multifunctional radical quenchers” (ARIZONA BOARD OF REGENTS ON BEHALF OF ARIZONA STATE …, priority 2012, dated 2018).

Data set [1] concerns differentiated SH-SY5Y cells. Nature of the data set: Neuroprotection against Aβ 1-42 oligomer induced cytotoxicity (WST-1). The format is cell-based, human. Conditions: Aβ 1-42 oligomers 2.5 μM, 48 h. The procedure:
FIG. 8. Effect of nitrogen-containing 1,4-benzoquinone 40 and geldanamycin on Aβ 1-42 induced neurotoxicity in differentiated SH-SY5Y cells.
The cytotoxic effect of Aβ 1-42 oligomers (2.5 μM) on differentiated SH-SY5Y cells was evaluated in presence and absence of the test compounds. Sequential treatment of the human SH-SY5Y neuroblastoma cell line with retinoic acid and brain-derived neurotrophic factor (BDNF) generates nearly pure populations of human neuron-like cells, thus providing a model for the study of neuronal differentiation and neuroprotection as previously described, with some modifications (Encinas et al. (2000) J. Neurochem. 75, 991-1003). […] The plates were incubated at 37° C. in an atmosphere having 95% humidity and 5% CO2 for 48 h and then cell viability was measured using a WST-1 Kit (Roche Diagnostics). […] Color intensity was measured with a 96-well plate at 450 nm using a SpectraMax M5 microplate reader (Molecular Devices, Sunnyvale, Calif.). Results are expressed as percentage of viable cells relative to untreated control after subtracting background. Data are expressed as means±S.E.M. (n=3).
Synthetic human Aβ 1-42 was purchased from AnaSpec (San Jose, Calif.). […] Aβ 1-42 peptide content was determined by the method of bicinchoninic acid assay (micro-BCA kit, Pierce) using BSA as reference.
A general note: Tetrazolium dyes change colour on reduction, which living cells bring about.

Another data set concerns FRDA lymphocytes. As to the kind of experiment: Preservation of mitochondrial membrane potential (TMRM flow cytometry) in DEM-treated FRDA lymphocytes. The format is cell-based. Here is the method:
FIG. 3. Effect of nitrogen-containing 1,4-benzoquinone derivatives on mitochondrial membrane potential of cultured FRDA cells. Representative flow cytometric two dimensional color density dot plot analyses of mitochondrial membrane potential Δψm in FRDA lymphocytes stained with TMRM and analyzed using the FL2-H channel as described in Experimental Section. The cells were washed twice in phosphate buffered saline, and suspended in phosphate buffered saline containing 20 mM glucose. The percentage of cells with intact Δψm is indicated in the top right quadrant of captions. In each analysis, 10,000 events were recorded. Data are expressed as means±SEM of three independent experiments run in duplicate.
Mitochondrial membrane potential was measured using two different fluorescent dyes, TMRM and JC-1. Δψm was determined as previously described by staining FRDA lymphocyte cells with TMRM (Molecular Probes, Eugene, Oreg.) and analyzing fluorescence emission by flow cytometry in detection channel 2 (FL2-H) (Khdour et al. (2011) Pharmaceut. Res. 28, 2896-2909). Briefly, FRDA lymphocytes were pre-treated with or without the test compounds for 16 h. The cells were treated with 5 mM DEM for 140 min, collected by centrifugation at 300×g for 3 min and then washed twice with phosphate buffered saline. The cells were resuspended in PBS containing […] and incubated at 37° C. in the dark for 15 min with 250 nM TMRM. Cells were collected by centrifugation at 300×g for 3 min and were then washed with phosphate buffered saline. The samples were analyzed immediately by flow cytometry using a 488 nm excitation laser and the FL2-H channel. The results obtained were verified in three independent experiments. […] In each analysis, 10,000 events were recorded. […] The following day, cells were treated with tested compounds and incubated for an additional 12 h before treatment with 1 mM BSO. Δψm was assessed after 24 h using JC-1 Mitochondrial Membrane Potential Detection Kit (Biotium, Inc) following the manufacturer instruction. Glass cover slips were rinsed with phosphate-buffered saline and mounted onto slides, and images were recorded and analyzed with a Zeiss AxioCam MRm and AxioVision 3.1 software (Carl Zeiss Goettingen, Germany) on a Zeiss Axiovert 200 M inverted microscope, equipped with a 40× oil immersion objective.
The ability of the test compounds to preserve mitochondrial membrane potential under conditions of oxidative stress was studied. […] Changes in mitochondrial membrane potential (Δψm) were measured using two different fluorescent dyes, tetramethylrhodamine methyl ester (TMRM) and 5,5′,6,6′-tetrachloro-1,1′,3,3′-tetraethylbenzimidazolocarbocyanine iodide (JC-1). […] The fluorescence signal of TMRM can be directly co-related to Δψm across the inner mitochondrial membrane. […]
(A flow cytometer gives signals particle by particle.)

In data set [2] the test system is Friedreich's ataxia lymphoblast cell line GM15850. As to the kind of experiment: Cytoprotection (trypan blue exclusion assay) of DEM-treated FRDA lymphocytes. It is filed as cell-based. Conditions: Homo sapiens, GM15850; 5 μM; DEM alone 18 ± 10% viability; read-out: Cytoprotection (cell viability, % of untreated control). In outline: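 GM15850 FRDA lymphoblasts at 5×10^5 cells/mL pre-incubated with test compounds for 17 h at 37 °C, then exposed to 5 mM DEM to deplete GSH. Viability by 0.4% trypan blue exclusion, ≥500 cells counted per group, expressed as % of non-DEM control; means±S.E.M., n=3.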

For data set [3], the target named is bovine heart mitochondrial complex I (Bos taurus, UniProt P03887+P17694+P42026). Nature of the data set: Complex I (NADH-Q1 oxidoreductase) inhibition in submitochondrial particles. The format is biochemical. As to conditions: submitochondrial particles, 30° C.

As a reminder, the viability is the share of living cells, or the viability signal relative to a control. One may read the IC50 as the concentration needed to halve the response being measured.

Bounds are passed on as bounds.

Sequence of bovine heart mitochondrial complex I (P25708 21-464): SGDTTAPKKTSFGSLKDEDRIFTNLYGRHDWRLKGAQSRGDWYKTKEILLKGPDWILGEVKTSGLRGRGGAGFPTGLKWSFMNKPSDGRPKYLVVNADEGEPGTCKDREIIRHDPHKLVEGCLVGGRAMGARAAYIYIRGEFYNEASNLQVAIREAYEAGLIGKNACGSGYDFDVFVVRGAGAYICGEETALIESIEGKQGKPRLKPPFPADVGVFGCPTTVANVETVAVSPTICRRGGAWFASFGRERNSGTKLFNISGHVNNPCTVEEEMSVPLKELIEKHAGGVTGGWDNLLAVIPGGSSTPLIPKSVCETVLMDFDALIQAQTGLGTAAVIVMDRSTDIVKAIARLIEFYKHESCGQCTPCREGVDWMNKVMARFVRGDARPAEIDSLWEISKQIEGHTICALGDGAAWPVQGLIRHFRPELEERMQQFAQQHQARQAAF
Sequence of bovine heart mitochondrial complex I (P42026 38-216): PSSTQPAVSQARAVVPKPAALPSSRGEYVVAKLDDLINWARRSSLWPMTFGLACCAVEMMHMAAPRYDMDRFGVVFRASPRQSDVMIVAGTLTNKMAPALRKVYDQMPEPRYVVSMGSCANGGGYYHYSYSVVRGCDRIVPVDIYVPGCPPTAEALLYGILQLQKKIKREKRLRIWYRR
Sequence of bovine heart mitochondrial complex I (P17694 34-463): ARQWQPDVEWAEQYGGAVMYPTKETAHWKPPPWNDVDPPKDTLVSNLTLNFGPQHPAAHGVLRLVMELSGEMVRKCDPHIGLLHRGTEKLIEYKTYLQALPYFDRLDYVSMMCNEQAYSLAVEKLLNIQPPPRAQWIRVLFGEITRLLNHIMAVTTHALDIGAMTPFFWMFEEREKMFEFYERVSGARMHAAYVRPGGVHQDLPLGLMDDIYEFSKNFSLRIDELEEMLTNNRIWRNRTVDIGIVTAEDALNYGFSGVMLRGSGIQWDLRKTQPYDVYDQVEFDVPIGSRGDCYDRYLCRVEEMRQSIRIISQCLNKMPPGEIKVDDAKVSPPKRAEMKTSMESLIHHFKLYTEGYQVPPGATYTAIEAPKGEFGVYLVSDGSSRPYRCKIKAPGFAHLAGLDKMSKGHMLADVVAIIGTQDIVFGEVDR
Sequence of bovine heart mitochondrial complex I (P15690 24-727, further chain): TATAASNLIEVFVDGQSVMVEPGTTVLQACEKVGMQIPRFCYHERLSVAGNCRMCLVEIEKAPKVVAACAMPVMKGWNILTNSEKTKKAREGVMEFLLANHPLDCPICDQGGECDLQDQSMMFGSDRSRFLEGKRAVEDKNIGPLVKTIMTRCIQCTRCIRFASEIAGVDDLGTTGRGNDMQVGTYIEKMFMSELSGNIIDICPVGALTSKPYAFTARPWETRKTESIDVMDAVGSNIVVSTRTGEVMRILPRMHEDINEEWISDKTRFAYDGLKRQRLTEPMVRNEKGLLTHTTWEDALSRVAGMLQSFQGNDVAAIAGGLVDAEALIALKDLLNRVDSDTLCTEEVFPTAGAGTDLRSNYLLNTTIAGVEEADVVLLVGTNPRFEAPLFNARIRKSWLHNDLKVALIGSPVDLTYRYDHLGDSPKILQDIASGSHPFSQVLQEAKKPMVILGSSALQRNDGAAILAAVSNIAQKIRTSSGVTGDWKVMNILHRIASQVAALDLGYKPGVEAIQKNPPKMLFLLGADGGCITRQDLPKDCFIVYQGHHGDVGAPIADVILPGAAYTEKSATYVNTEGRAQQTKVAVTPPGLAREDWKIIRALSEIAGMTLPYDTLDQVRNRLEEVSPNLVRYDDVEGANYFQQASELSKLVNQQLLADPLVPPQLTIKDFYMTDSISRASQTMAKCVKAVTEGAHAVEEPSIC
Sequence of bovine heart mitochondrial complex I (P03887 whole entry): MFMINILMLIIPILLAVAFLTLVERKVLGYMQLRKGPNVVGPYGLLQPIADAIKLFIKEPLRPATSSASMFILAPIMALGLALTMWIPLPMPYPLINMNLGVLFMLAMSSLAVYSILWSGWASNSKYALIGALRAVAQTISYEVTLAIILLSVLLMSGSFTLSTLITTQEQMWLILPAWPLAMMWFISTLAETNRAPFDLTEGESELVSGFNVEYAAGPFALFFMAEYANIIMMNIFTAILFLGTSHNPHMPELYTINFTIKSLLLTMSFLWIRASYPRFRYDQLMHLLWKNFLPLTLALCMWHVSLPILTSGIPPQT
Sequence of bovine heart mitochondrial complex I (P42028 37-212, further chain): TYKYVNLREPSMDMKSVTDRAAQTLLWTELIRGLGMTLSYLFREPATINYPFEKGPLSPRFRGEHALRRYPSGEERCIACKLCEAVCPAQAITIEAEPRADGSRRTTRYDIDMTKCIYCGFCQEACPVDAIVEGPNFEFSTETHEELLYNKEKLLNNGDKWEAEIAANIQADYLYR

As to `COC1=C2C[C@@H](C)C[C@H](OC)[C@H](O)[C@@H](C)/C=C(\C)[C@H](OC(N)=O)[C@@H](OC)/C=C\C=C(/C)C(=O)NC(=CC1=O)C2=O` [geldanamycin, reference compound], the “Effect on Aβ 1-42 induced cytotoxicity (in words)” value in data set [1] is “increased cytotoxicity”.
For the molecule `CCCCCCCCCCCCCC1=C(OC)C(=O)C=C(NCCCC(=O)OCCCC)C1=O` [Compound 15, Butyl 4-(4-methoxy-3,6-dioxo-5-tridecylcyclohexa-1,4-dienylamino)butanoate], the “Preservation of mitochondrial membrane potential Δψm (in words)” value in the data set on FRDA lymphocytes is listed as “prevented the loss of Δψm”. In addition, the viability at 5 µM in data set [2] came to 82 ± 2.9%. In data set [3] (read-out: Complex I inhibition IC50), the IC50 was found to be 98 ± 8 µM. In data set [3] (read-out: Complex I inhibition Imax), the Emax was at least 60%.
